# Assay results reported in ChEMBL document CHEMBL5727860, “Bicyclic heteroaryl substituted compounds” (2020).
# pIC50: −log10 of the molar value.
# Molecular target: T1, Proteinase-activated receptor 4 (Homo sapiens, UniProt Q96RI0)
# T1 sequence (Q96RI0 whole entry): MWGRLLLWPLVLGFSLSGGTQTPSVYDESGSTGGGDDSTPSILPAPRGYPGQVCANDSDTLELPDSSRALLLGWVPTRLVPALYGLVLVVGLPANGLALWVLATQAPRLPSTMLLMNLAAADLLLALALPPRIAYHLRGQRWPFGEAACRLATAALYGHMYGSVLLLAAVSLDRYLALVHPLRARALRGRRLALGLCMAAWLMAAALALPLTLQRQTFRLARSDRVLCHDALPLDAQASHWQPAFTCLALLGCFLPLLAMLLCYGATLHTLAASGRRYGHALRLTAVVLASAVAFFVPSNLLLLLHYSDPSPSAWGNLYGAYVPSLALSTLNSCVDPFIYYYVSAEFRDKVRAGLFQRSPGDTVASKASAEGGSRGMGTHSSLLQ
# Test: FLIPR Assay in PAR4-Expressing HEK293 Cells: FLIPR-based calcium mobilization assay in HEK293 cells was used to measure PAR4 antagonism agonism, and selectivity against PAR1. The activity of the PAR4 antagonists of the present invention were tested in PAR4 expressing cells by monitoring H-Ala-Phe(4-F)-[…]NH2-induced intracellular calcium mobilization. Counter screens for agonist activity and PAR1 antagonist activity were also performed. Briefly, PAR/PAR4-expressing HEK293 cells were grown in DMEM (Life Technology, Grand Island, N.Y.) containing 10% heat-inactivated FBS, 1% Penicillin-Streptomycin, 10 μg/mL blasticidin, and 100 μg/mL Zeocin at 37° C. with 5% CO2. Cells were plated overnight prior to the experiment in a black 384-well Purecoat Amine clear bottom plate (Becton Dickinson Biosciences, San Jose, Calif.) at 10,000 cells/well in 30 μL growth medium and incubated in a humidified chamber at 37° C. with 5% CO2 overnight. Prior to compound addition, the cell medium was replaced with 40 μL of 1× calcium and magnesium-containing Hank's Balanced Saline Solution (HBSS) (with 20 mM HEPES) and 1:1000 diluted fluorescent calcium indicator (Codex Biosolutions, Gaithersburg, Md.). […]
compound,measurement,value
COc1ccc(NC(=O)O[C@H]2CCNC[C@H]2Oc2cc3sc(-c4cc(C)cc5nc(OC)cnc45)nc3cc2F)cn1 (racemic),pIC50,6.01
COc1cnc2c(-c3nc4cc(F)c(O[C@@H]5CC(F)(F)C[C@@H]5OC(=O)Nc5cnc(OCCO)nc5)cc4s3)cc(C)cc2c1 (relative stereo),pIC50,7.70
